Test results: US20060165744A1, “Combination liposomal formulations” (NeoPharm, Inc, priority 2003, published 2006)

Tests used:
P388/ADR cells = test: Anti-tumor efficacy on tumor bearing mice (increase in lifespan); assay type: in vivo, CD2F1 female mice; settings: 1.0 mg/kg DOX, I.V. for five consecutive days
Protocol: After 24 hours, mice were randomly divided into different treatment groups (5 mice/group) and vehicle controls or test article formulations were administered I.V. for five consecutive days. Injection volume was based on individual mouse body w eight. Mice were weighed prior to dosing on Days 1-5. […] Mean survival time (MST) was determined and the percent increase in lifespan (% ILS) was calculated as follows: % ILS=[(100×MST of Treatment Group)/(MST of Control Group)]−100% ILS≧25% is considered as a positive response.

[1] = system: P388/ADR (Adriamycin-resistant murine leukemia) cells; test: Cytotoxicity by sulforhodamine B assay, P388/ADR; assay type: cell-based; settings: Mus musculus, treated 48 hrs, read-out: GI50 values (mM) against drug-resistant cancer cell lines
Protocol: (§1) SKVLB (Vincristine-resistant human ovarian) cells were obtained from Georgetown University and maintained in RPMI 1640 medium containing 10% heat-inactivated FBS, penicillin (100 units/mL) and streptomycin ([…]) with […] Vincristine. P388/ADR (Adriamycin-resistant murine leukemia) cells were purchased from National Cancer Institute (Frederick, Md.) and maintained in RPMI 1640 medium containing 10% heat-inactivated FBS, penicillin (100 units/mL) and streptomycin ([…]). SKVLB cells were cultured in drug-free media for at least a week before studies. The cells (10,000 cells/well for SKVLB and 25,000 cells/well for P388/ADR) were plated in a 96-well plate overnight and treated with doxorubicin, LEP or LEPD for 48 hrs. After incubation, the cytotoxicity was determined by a sulforhodamine B assay.

[2] = system: SKVLB (Vincristine-resistant human ovarian) cells; test: Cytotoxicity by sulforhodamine B assay, SKVLB; assay type: cell-based; settings: treated 48 hrs, read-out: GI50 values (mM) against drug-resistant cancer cell lines
Protocol: as §1

[3] = Percent entrapment of doxorubicin or mitoxantrone in reconstituted LEP (Sephardex G-25 column, UV absorbance); assay type: physicochemical
Protocol: Either doxorubicin (0.5 to 1.5 mg/ml) or mitoxantrone (0.5 to 1.5 mg/ml) was dissolved in deionized water, and these solutions were employed to reconstitute the lyophilized LEP cakes. The drug to lipid ratio varied from 1:120 to 1:24 (wt/wt) for doxorubicin and 1:120 to 1:24 (wt/wt) for mitoxantrone. Following reconstitution, the liposomal preparation was subjected to column chromatography using Sephardex G-25 to separate the free doxorubicin or mitoxantrone from the drug bound to the liposomes. The pre and post column samples were solubilized in methanol and the absorbance values were measured at appropriate wavelengths. The absorbance of doxorubicin (480 nm) and mitoxantrone (660 nm) was measured in the formulations both prior to and after column chromatography, and the percent entrapment was calculated using the following equation: % entrapment=[absorbance of drug after column/absorbance of drug before column]×100

[4] = Effect of mitoxantrone or doxorubicin loading on entrapment of paclitaxel in LEP-ETU; assay type: physicochemical
Protocol: Mitoxantrone or doxorubicin (0.5 to 1.5 mg) was loaded into LEP-ETU.

COc1cccc2c1C(=O)c1c(O)c3c(c(O)c1C2=O)C[C@@](O)(C(=O)CO)C[C@@H]3O[C@H]1C[C@H](N)[C@H](O)[C@H](C)O1 [Doxorubicin (DOX), doxorubicin]
% ILS (P388/ADR cells): 18.20%
GI50 [1]: 0.015 mM
GI50 [2]: 0.016 mM
DOX % Entrapment UV 480 nm ([3]; Initial DOX concentration 0.50 mg/mL): 93%
DOX % Entrapment UV 480 nm ([3]; Initial DOX concentration 0.75 mg/mL): 92%
DOX % Entrapment UV 480 nm ([3]; Initial DOX concentration 1.00 mg/mL): 90%
DOX % Entrapment UV 480 nm ([3]; Initial DOX concentration 1.50 mg/mL): 78%

O=C1c2c(O)ccc(O)c2C(=O)c2c(NCCNCCO)ccc(NCCNCCO)c21 [MTO, mitoxantrone]
MTO % Entrapment UV 660 nm ([3]; Initial MTO concentration 0.50 mg/mL): 97%
MTO % Entrapment UV 660 nm ([3]; Initial MTO concentration 0.75 mg/mL): 99%
MTO % Entrapment UV 660 nm ([3]; Initial MTO concentration 1.00 mg/mL): 100%
MTO % Entrapment UV 660 nm ([3]; Initial MTO concentration 1.50 mg/mL): 101%

CC(=O)O[C@H]1C(=O)[C@@]2(C)[C@H]([C@H](OC(=O)c3ccccc3)[C@]3(O)C[C@H](OC(=O)[C@H](O)[C@@H](NC(=O)c4ccccc4)c4ccccc4)C(C)=C1C3(C)C)[C@]1(OC(C)=O)CO[C@@H]1C[C@@H]2O [Paclitaxel, paclitaxel]
Paclitaxel Entrapment (%) With DOX ([4]; Initial DOX 0.50 mg/mL): 102%
Paclitaxel Entrapment (%) With DOX ([4]; Initial DOX 0.75 mg/mL): 102%
Paclitaxel Entrapment (%) With DOX ([4]; Initial DOX 1.00 mg/mL): 102%
Paclitaxel Entrapment (%) With DOX ([4]; Initial DOX 1.50 mg/mL): 109%
